The values that follow come from US10952999B2, “Inhibitor of cyclin-dependent kinase CDK9” (GENFLEET THERAPEUTICS (SHANGHAI) INC., priority 2017, dated 2021).

For experiment [1], the system named is human leukemia cell Nomo-1. Briefly: Cancer cell growth, Cell Titer-Glo cell viability assay, 72 hours. Conditions: Homo sapiens; Nomo-1, 72 hours. It is filed as cell-based. The source says:
(§1) In the examples, we used acute myelocytic leukemia (AML) OCI-AML-3, acute promyelocytic leukemia cell line NB-4, MDS-RAEB (myelodysplastic syndrome-excess blasts type) cell line SKM-1, human leukemia cell Nomo-1, acute myeloid leukemia cell line MOLM14, acute myeloid leukemia cell line MOLM13, acute myeloid leukemia cell line MV4-11, acute myeloid leukemia cell line HL-60, acute myeloid leukemia cell line OCI-AML-2, histiocytic lymphoma U-937, acute B cell leukemia cell line MEC-1, acute B cell leukemia cell line MEC-2, acute megakaryoblastic leukemia CMK, hamster lung cell CHL, hamster ovary cell CHO, human non-small cell lung cancer cell H1975, human non-small cell lung cancer cell H358, human small cell lung cancer cell H209, human lung adenocarcinoma cell H1395, human non-small cell lung cancer cell PC-9, human lung cancer cell H3122, human non-small cell lung cancer cell H2122, human non-small cell lung cancer cell H1915, human lung adenocarcinoma cell H1355, human non-small cell lung cancer cell HCC827, human breast cancer cell MDA-MB-231, human breast cancer cell MDA-MB-468, human breast cancer cell MCF-7, human breast cancer cell T47D, human breast cancer cell SK-Br-3, the above cells were purchased from ATCC.
(§2) Cell Titer-Glo® (Promega, USA) chemical self-luminescence cell viability assay kit was used to detect the number of viable cells by quantitatively measuring ATP in living cells, according to which to calculate GI50 and IC50.

The test system of experiment [2] is histiocytic lymphoma U-937. The experiment is described as above. It is filed as cell-based. Conditions: Homo sapiens; U-937, 72 hours.
Excerpt: as §1, §2

A further experiment has as its system hamster ovary cell CHO. Described as above. It is filed as cell-based.
Excerpt: as §1, §2

Experiment [3] relates to acute myeloid leukemia cell line MOLM14. Described as above. It is filed as cell-based. Conditions: Homo sapiens; MOLM-14, 72 hours.
Excerpt: as §1, §2

The test system of experiment [4] is acute myelocytic leukemia (AML) OCI-AML-3. The experiment is described as above. It is filed as cell-based. Conditions: Homo sapiens, OCI-AML-3; OCI-AML3, 72 hours.
Excerpt: as §1, §2

Experiment [5] relates to acute promyelocytic leukemia cell line NB-4. The experiment is described as above. Conditions: NB4, 72 hours. It is filed as cell-based.
Excerpt: as §1, §2

Experiment [6] relates to acute B cell leukemia cell line MEC-2. The description is as above. It is filed as cell-based. Conditions: MEC2; MEC-2, 72 hours.
Excerpt: as §1, §2

For experiment [7], the system named is acute myeloid leukemia cell line HL-60. The description is as above. It is filed as cell-based. Conditions: Homo sapiens; HL-60, 72 hours.
Excerpt: as §1, §2

Experiment [8] relates to acute megakaryoblastic leukemia CMK. The experiment is described as above. It is filed as cell-based.
Excerpt: as §1, §2

For experiment [9], the system named is MDS-RAEB (myelodysplastic syndrome-excess blasts type) cell line SKM-1. The experiment is described as above. It is filed as cell-based. Conditions: Homo sapiens; SKM-1, 72 hours.
Excerpt: as §1, §2

Experiment [10] concerns acute myeloid leukemia cell line MOLM13. The experiment is described as above. It is filed as cell-based. Conditions: Homo sapiens; MOLM-13, 72 hours.
Excerpt: as §1, §2

The subject of experiment [11] is acute myeloid leukemia cell line MV4-11. The description is as above. It is filed as cell-based. Conditions: Homo sapiens; MV4-11, 72 hours.
Excerpt: as §1, §2

Experiment [12] concerns acute B cell leukemia cell line MEC-1. The description is as above. It is filed as cell-based. Conditions: Homo sapiens, MEC1; MEC-1, 72 hours.
Excerpt: as §1, §2

The next experiment has as its system hamster lung cell CHL. The experiment is described as above. It is filed as cell-based.
Excerpt: as §1, §2

The subject of experiment [13] is acute myeloid leukemia cell line OCI-AML-2. The description is as above. It is filed as cell-based. Conditions: Homo sapiens; OCI-AML2, 72 hours.
Excerpt: as §1, §2

For a further experiment, the target named is T1, CDK11(non-active) (Homo sapiens, UniProt Q9BWU1).
T1 construct: purchased Invitrogen, USA
T1 sequence (Q9BWU1 whole entry): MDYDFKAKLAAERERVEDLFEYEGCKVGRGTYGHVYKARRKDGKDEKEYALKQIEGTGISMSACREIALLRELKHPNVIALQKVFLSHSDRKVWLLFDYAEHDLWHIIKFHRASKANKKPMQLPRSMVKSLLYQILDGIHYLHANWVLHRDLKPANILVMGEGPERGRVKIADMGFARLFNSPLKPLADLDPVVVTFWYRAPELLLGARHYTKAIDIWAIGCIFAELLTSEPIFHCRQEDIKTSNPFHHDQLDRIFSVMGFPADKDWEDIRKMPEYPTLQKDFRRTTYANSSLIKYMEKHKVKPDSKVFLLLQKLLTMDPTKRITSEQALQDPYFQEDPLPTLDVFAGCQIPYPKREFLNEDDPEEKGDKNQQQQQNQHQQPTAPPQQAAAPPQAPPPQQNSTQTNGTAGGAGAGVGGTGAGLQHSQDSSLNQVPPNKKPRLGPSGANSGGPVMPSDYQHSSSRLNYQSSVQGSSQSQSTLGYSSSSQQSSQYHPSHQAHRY
Briefly: Enzyme assay for inhibition of CDK protein in vitro (Z-LYTE). It is filed as biochemical. Here is the method: (§3) Compounds 1 and 14 diluted in DMSO were mixed with detected CDK protein (Invitrogen, USA) respectively, incubated at room temperature for 30 minutes; and then mixed with Kinase/Z-LYTE™ Peptide Substrate Mixture (Invitrogen, USA) and 4×ATP. The mixed system was transferred to a 384-well white opaque plate to react for 1 hour at room temperature; 5 μL of Development Solution (Invitrogen, USA) was added to react at room temperature for 1 hour, and finally Stop Reagent (Invitrogen, USA) was added to terminate the reaction and MD SpectraMax I3× microplate reader (Molecular Devices, USA) was used to read fluorescence values.

A further experiment concerns the target T2, CDK9/cyclin T1 (Homo sapiens, UniProt P50750).
T2 construct: purchased Invitrogen, USA
The description is as above. It is filed as biochemical. Here is the method: as §3

The target in the next experiment is T3, CDK3/cyclin E1 (Homo sapiens, UniProt Q00526).
T3 construct: purchased Invitrogen, USA
T3 sequence (Q00526 whole entry): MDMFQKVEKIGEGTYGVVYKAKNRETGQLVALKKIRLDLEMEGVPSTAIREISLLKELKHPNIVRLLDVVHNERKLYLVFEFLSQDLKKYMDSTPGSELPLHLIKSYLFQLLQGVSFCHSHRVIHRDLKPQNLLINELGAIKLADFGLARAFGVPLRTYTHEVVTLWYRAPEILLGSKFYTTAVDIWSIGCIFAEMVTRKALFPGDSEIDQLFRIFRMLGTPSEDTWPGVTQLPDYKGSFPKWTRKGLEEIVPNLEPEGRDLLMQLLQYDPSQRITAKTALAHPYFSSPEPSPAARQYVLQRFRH
T3 sequence (P24864 whole entry partner): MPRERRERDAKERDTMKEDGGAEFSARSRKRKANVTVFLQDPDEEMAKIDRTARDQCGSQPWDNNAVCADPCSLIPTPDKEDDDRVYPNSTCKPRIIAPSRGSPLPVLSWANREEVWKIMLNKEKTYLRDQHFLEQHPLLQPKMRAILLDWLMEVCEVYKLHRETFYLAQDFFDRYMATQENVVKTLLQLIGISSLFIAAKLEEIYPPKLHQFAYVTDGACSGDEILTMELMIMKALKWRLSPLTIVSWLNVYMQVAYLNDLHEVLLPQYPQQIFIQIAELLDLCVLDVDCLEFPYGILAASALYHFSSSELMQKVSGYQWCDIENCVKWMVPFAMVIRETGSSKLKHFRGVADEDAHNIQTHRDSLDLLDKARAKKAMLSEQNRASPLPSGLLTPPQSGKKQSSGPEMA
The experiment is described as above. It is filed as biochemical. Here is the method: as §3

The target in a further experiment is T4, CDK8/cyclin C (Homo sapiens, UniProt P49336).
T4 construct: purchased Invitrogen, USA
T4 sequence (P49336 whole entry): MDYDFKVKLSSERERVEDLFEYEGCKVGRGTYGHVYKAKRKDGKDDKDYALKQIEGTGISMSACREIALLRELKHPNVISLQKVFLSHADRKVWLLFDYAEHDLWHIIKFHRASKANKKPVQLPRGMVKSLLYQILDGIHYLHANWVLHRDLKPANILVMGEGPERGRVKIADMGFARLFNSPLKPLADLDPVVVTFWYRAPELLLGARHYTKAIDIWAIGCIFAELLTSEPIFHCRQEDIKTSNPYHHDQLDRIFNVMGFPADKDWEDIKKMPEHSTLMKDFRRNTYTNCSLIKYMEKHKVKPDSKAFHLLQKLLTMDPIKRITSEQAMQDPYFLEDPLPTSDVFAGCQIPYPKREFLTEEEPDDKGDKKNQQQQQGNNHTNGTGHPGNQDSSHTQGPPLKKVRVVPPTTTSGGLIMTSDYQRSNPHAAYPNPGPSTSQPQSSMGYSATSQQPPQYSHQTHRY
T4 sequence (P24863 whole entry partner): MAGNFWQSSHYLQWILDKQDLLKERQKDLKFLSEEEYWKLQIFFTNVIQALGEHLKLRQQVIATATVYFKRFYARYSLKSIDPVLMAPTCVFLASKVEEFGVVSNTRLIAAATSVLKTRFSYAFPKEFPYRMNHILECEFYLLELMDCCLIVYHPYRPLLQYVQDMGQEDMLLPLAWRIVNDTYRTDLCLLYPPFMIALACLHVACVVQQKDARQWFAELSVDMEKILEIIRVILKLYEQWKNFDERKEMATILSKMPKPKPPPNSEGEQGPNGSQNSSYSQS
The description is as above. It is filed as biochemical. Here is the method:
as §3

T2 sequence (P50750 whole entry): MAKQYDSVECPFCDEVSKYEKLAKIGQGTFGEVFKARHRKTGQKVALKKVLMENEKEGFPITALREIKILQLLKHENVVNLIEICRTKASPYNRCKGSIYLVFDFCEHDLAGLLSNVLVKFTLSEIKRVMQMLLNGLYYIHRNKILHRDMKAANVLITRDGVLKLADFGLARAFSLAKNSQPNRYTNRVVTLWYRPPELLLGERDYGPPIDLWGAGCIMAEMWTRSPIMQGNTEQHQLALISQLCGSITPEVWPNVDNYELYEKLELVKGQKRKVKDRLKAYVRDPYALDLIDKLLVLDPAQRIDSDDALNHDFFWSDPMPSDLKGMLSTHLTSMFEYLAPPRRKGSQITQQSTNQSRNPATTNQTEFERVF
T2 sequence (O60563 whole entry partner): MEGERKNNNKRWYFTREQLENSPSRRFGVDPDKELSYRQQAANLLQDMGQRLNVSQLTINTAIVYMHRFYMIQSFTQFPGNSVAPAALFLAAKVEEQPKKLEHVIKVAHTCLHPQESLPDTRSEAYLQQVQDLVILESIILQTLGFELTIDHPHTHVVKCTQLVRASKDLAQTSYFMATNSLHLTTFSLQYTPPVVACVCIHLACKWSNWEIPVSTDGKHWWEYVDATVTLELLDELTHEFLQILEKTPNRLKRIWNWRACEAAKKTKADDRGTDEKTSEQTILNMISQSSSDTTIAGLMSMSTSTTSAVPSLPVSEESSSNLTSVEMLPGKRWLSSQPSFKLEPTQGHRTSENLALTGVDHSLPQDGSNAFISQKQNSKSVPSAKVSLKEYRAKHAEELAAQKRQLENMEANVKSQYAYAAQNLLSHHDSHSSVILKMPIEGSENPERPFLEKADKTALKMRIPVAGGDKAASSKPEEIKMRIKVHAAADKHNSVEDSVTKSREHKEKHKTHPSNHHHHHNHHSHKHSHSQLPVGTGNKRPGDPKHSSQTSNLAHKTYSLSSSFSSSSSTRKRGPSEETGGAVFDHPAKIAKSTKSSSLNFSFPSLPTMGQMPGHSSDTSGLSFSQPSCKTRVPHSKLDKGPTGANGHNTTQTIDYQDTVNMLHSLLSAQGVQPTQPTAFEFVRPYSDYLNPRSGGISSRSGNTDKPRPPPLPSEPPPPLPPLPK

For the compound `COCCN[C@H]1CC[C@H](Nc2cc(-c3csc(NCC4(C#N)CCOCC4)n3)c(Cl)cn2)CC1` [Compound 14, 4-((4-(5-chloro-2-(((1r,4r)-4-((2-methoxyethyl)amino)cyclohexyl)amino)pyridin-4-yl)thiazol-2-ylamino)methyl)tetrahydro-2H-pyran-4-carbonitrile], the GI50 in [1] is 110 nM; in experiment [2], 11 nM; with hamster ovary cell CHO (CHO, 72 hours), 1100 nM; in [3], 1.1 nM; in experiment [4], 12 nM; in experiment [5], 7.9 nM. Besides, the GI50 in [6] is 23 nM; in experiment [7], 56 nM; in experiment [8], 36 nM; in experiment [9], 2 nM; in [10], 12 nM; in [11], 41 nM. For the same compound, the GI50 in experiment [12] was 37 nM; in the experiment on hamster lung cell CHL (CHL, 72 hours), 1200 nM; in experiment [13], 6.6 nM. In the experiment on hamster ovary cell CHO (CHO cells), the “inhibitory effect on normal cell CHO (in words)” value is recorded as “no inhibitory effect”. Further, the “inhibitory effect on normal cell CHL (in words)” value in the experiment with hamster lung cell CHL (CHL cells) is recorded as “no inhibitory effect”. The IC50 against CDK11(non-active) is over 10000 nM; against CDK9/cyclin T1 it was 1.27 nM; at CDK3/cyclin E1, over 10000 nM; on CDK8/cyclin C, over 10000 nM.
